Measurements taken from PubChem BioAssay (NCI).
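All cell lines were grown in 96-well plates and treated with compound for 48 hours. At the TGI there is no net growth.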

What was measured:
Test in all cases: DTP human tumour cell line panel, 48 h
SF-295 CNS = test system: SF-295 CNS
U251 CNS = test system: U251 CNS
UO-31 renal = test system: UO-31 renal
EKVX NSCLC = test system: EKVX NSCLC
HCC-2998 colon = test system: HCC-2998 colon
CCRF-CEM leukemia = test system: CCRF-CEM leukemia
A498 renal = test system: A498 renal
T-47D breast = test system: T-47D breast
HOP-62 NSCLC = test system: HOP-62 NSCLC
HOP-92 NSCLC = test system: HOP-92 NSCLC
ACHN renal = test system: ACHN renal
SNB-75 CNS = test system: SNB-75 CNS
OVCAR-3 ovarian = test system: OVCAR-3 ovarian
MOLT-4 leukemia = test system: MOLT-4 leukemia
NCI-H460 lung = test system: NCI-H460 lung
K-562 leukemia = test system: K-562 leukemia
SNB-19 CNS = test system: SNB-19 CNS
DU-145 prostate = test system: DU-145 prostate
SR leukemia = test system: SR leukemia
OVCAR-5 ovarian = test system: OVCAR-5 ovarian

SMILES | TGI (SF-295 CNS) [µM] | TGI (U251 CNS) [µM] | TGI (UO-31 renal) [µM] | TGI (EKVX NSCLC) [µM] | TGI (HCC-2998 colon) [µM] | TGI (CCRF-CEM leukemia) [µM] | TGI (A498 renal) [µM] | TGI (T-47D breast) [µM] | TGI (HOP-62 NSCLC) [µM] | TGI (HOP-92 NSCLC) [µM] | TGI (ACHN renal) [µM] | TGI (SNB-75 CNS) [µM] | TGI (OVCAR-3 ovarian) [µM] | TGI (MOLT-4 leukemia) [µM] | TGI (NCI-H460 lung) [µM] | TGI (K-562 leukemia) [µM] | TGI (SNB-19 CNS) [µM] | TGI (DU-145 prostate) [µM] | TGI (SR leukemia) [µM] | TGI (OVCAR-5 ovarian) [µM]
CCOP(=O)(OCC)C(Nc1ccc(Br)cc1)c1cccc([N+](=O)[O-])c1 (stereo not given) | 28.3 | 36.1 | 22.7 | 10.8 | 32.4 | 49.1 | 31.1 | 37.1 | 39.8 | 42.2 | 47.1 | > 100 | 35.6 | 47.8 | 29.3 | 38.6 | 47.6 | > 100 | 56.2 | 67.6
CN(C)C(=S)/N=c1\ssc(=S)n1Cc1cccnc1 | 16.8 | > 94.9 | > 100 | > 100 | > 100 | > 86.1 | > 100 | > 100 | > 100 | > 100 | > 100 | 20.6 | 9.47 | 98.5 | > 95.7 | > 100 | > 100 | > 64.3 | > 100 | > 100
